# Measured values: ChEMBL document CHEMBL4428058, “Hit-to-Lead Studies for the Antimalarial Tetrahydroisoquinolone Carboxanilides” (J Med Chem, 2016)
# Legend:
# Assay type in all cases: ADME, Microsome
# [1] = Drug metabolism in CD-1 mouse liver microsomes assessed as oxidation at N-2 isobutyl group
# [2] = Half life in CD-1 mouse liver microsomes in presence of NADPH by UPLC-MS analysis; conditions: for t1/2: mouse, microsomes
# [3] = Drug metabolism in CD-1 mouse liver microsomes assessed as (3S,4S)-N-(3-chloro-4-hydroxyphenyl)-2-isobutyl-1-oxo-3-(thiophen-2-yl)-1,2,3,4-tetrahydroisoquinoline-4-carboxamide formation
# [4] = Drug metabolism in CD-1 mouse liver microsomes assessed as ((3S,4S)-N-(3-hydroxyphenyl)-2-isobutyl-1-oxo-3-(thiophen-2-yl)-1,2,3,4-tetrahydroisoquinoline-4-carboxamide formation
# [5] = Drug level in CD-1 mouse liver microsomes treated with (3S,4S)-N-(3-cyanophenyl)-2-isobutyl-1-oxo-3-(thiophen-2-yl)-1,2,3,4-tetrahydroisoquinoline-4-carboxamide
# [6] = Drug level in CD-1 mouse liver microsomes treated with (3S,4S)-N-(3-chloro-4-methoxyphenyl)-2-isobutyl-1-oxo-3-(thiophen-2-yl)-1,2,3,4-tetrahydroisoquinoline-4-carboxamide
compound,measurement,setting,value
COc1ccc(NC(=O)[C@H]2c3ccccc3C(=O)N(CC(C)C)[C@@H]2c2cccs2)cc1Cl (racemic),Drug metabolism,[1],Metabolite_Detected
same,half-life,"[2]; CD-1, mouse, liver microsomes",< 30 min
same,Drug metabolism,[3],Metabolite_Detected
CC(C)CN1C(=O)c2ccccc2[C@H](C(=O)Nc2cccc(C#N)c2)[C@H]1c1cccs1 (racemic),Drug metabolism,[1],Metabolite_Detected
same,t1/2,[2],16.8 min
same,Drug metabolism,[4],Metabolite_Detected
CC(C)CN1C(=O)c2ccccc2[C@H](C(=O)Nc2ccc(F)c(C#N)c2)[C@H]1c1cn[nH]c1 (racemic),t1/2,[2],19.8 min
CC(C)CN1C(=O)c2ccccc2[C@H](C(=O)Nc2ccc(F)c(C#N)c2)[C@H]1c1ccc(C#N)s1 (racemic),t1/2,[2],72.6 min
CC(C)CN1C(=O)c2ccccc2[C@H](C(=O)Nc2cccc(O)c2)[C@H]1c1cccs1 (relative stereo),Drug metabolism,[5],Metabolite_Detected
CC(C)CN1C(=O)c2ccccc2[C@H](C(=O)Nc2ccc(O)c(Cl)c2)[C@H]1c1cccs1 (relative stereo),Drug metabolism,[6],Metabolite_Detected
N#Cc1cc(NC(=O)[C@H]2c3ccccc3C(=O)N(CC(F)(F)F)[C@@H]2c2cn[nH]c2)ccc1F (relative stereo),t1/2,[2],> 240 min
N#Cc1cc(NC(=O)[C@H]2c3ccccc3C(=O)N(CC(F)(F)F)[C@@H]2c2cccnc2)ccc1F (relative stereo) [SJ-733],t1/2,[2],97.8 min
